In patent US12486254B2, “Uracil derivatives for stimulating read-through of premature termination codons” (Southern Research Institute, priority 2022, dated 2025):

How the values were obtained:
G542X#10-HBE5x5 = assay: Read-through of a premature termination codon, G542X#10-HBE5x5 (Table 3); type: cell-based; conditions: with G418
Experimental: (§1) The compounds shown in Table 1 were evaluated for their ability to stimulate read-through of a premature termination codon, and their respective activities are shown in Tables 2 and 3 below.

W134X-CF#14 FRT = assay: Read-through of a premature termination codon, W134X-CF#14 FRT data, with G418; type: cell-based; conditions: in presence of G418
Experimental: as §1

| Compound | EC50 (G542X#10-HBE5x5) | EC50 (W134X-CF#14 FRT) |
| --- | --- | --- |
| CCn1c(=O)c(C(=O)CNC2CCOCC2)c(N)n(Cc2ccccc2)c1=O [1.10] | ≥ 100 µM | – |
| CCn1c(=O)c(C(=O)CN(CC(N)=O)C2CC2)c(N)n(Cc2ccccc2)c1=O [1.35] | ≥ 100 µM | – |
| CCn1c(=O)c(C(=O)CN2CCCC[C@@H]2C(N)=O)c(N)n(Cc2ccc(F)cn2)c1=O [2.22] | ≥ 30 µM | – |
| CCn1c(=O)c(C(=O)CN2CCC(O)CC2C(N)=O)c(N)n(Cc2ccc(F)cc2)c1=O (stereo not drawn) [1.221] | ≥ 100 µM | – |
| CCn1c(=O)c(C(=O)CN(C)C)c(N)n(Cc2cc(Cl)c(F)cc2F)c1=O [1.198] | ≥ 100 µM | – |
| CCn1c(=O)c(C(=O)CN(CC(N)=O)C(C)C)c(N)n(Cc2ccccc2)c1=O [1.1] | ≥ 100 µM | – |
| CCn1c(=O)c(C(=O)CN[C@@H](Cc2cnc[nH]2)C(=O)OC)c(N)n(Cc2ccccc2)c1=O [1.17] | ≥ 100 µM | – |
| CCn1c(=O)c(C(=O)CN2CCCC[C@@H]2C(N)=O)c(N)n(Cc2ccc(C#N)cc2F)c1=O [2.23] | ≥ 30 µM | – |
| CCn1c(=O)c(C(=O)CN2CCCC[C@H]2C(N)=O)c(N)n(Cc2ccc(F)cc2)c1=O [2.1] | ≥ 30 µM | – |
| CCn1c(=O)c(C(=O)CN(CC(=O)N(C)C)C(C)C)c(N)n(Cc2ccc(F)cc2)c1=O [1.139] | ≥ 100 µM | – |
| NC(=O)C1CCCCN1CC(=O)c1c(N)n(Cc2ccccc2)c(=O)n(C2CCCCC2)c1=O (stereo not drawn) [1.51] | ≥ 100 µM | – |
| CCn1c(=O)c(C(=O)CN2CCCc3c(C(N)=O)cccc32)c(N)n(Cc2ccc(F)cc2)c1=O [1.223] | ≥ 100 µM | – |
| CCn1c(=O)c(C(=O)CN(CC(N)=O)C(C)C)c(N)n(Cc2ccc(F)cc2)c1=O [1.133] | 50.5 µM | – |
| CC(C)N(CC(=O)c1c(N)n(Cc2ccc(F)cc2)c(=O)n(Cc2ccc(F)cc2)c1=O)CC(=O)N(C)C [1.74] | ≥ 100 µM | – |
| CCn1c(=O)c(C(=O)CN2CCCC[C@@H]2C(N)=O)c(N)n(Cc2ccccc2F)c1=O [2.3] | ≥ 30 µM | – |
| CCn1c(=O)c(C(=O)CN2CCCC[C@@H]2C(N)=O)c(N)n(Cc2nccn2C)c1=O [2.15] | ≥ 30 µM | – |
| CCn1c(=O)c(C(=O)CNCCC(N)=O)c(N)n(Cc2ccc(F)cc2)c1=O [1.201] | ≥ 100 µM | – |
| CCn1c(=O)c(C(=O)CN2CCCC[C@@H]2C(N)=O)c(N)n(Cc2ccc(O)cc2)c1=O [1.217] | ≥ 100 µM | – |
| CCn1c(=O)c(C(=O)CN2CCCC[C@@H]2C(=O)N2CCC(F)(F)CC2)c(N)n(Cc2ccc(F)cc2)c1=O [1.168] | ≥ 100 µM | – |
| CCn1c(=O)c(C(=O)CN2CCCC[C@@H]2C(N)=O)c(N)n(CCc2ccc(F)cc2)c1=O [2.7] | ≥ 30 µM | – |
| NC(=O)C1CCCCN1CC(=O)c1c(N)n(Cc2cccc(Cl)c2)c(=O)n(Cc2cccc(Cl)c2)c1=O (stereo not drawn) [1.104] | 25 µM | – |
| CCn1c(=O)c(C(=O)CN2CCCCC2c2nc3ccccc3[nH]2)c(N)n(Cc2ccccc2)c1=O (stereo not drawn) [1.106] | ≥ 100 µM | – |
| CCn1c(=O)c(C(=O)CN(CC(=O)NC)C(C)C)c(N)n(Cc2ccccc2)c1=O [1.39] | ≥ 100 µM | – |
| CCn1c(=O)c(C(=O)CN2CCC[C@H]2C(=O)OC)c(N)n(Cc2ccccc2)c1=O [1.23] | ≥ 100 µM | – |

| Compound | EC50 (G542X#10-HBE5x5) | EC50 (W134X-CF#14 FRT) |
| --- | --- | --- |
| CCn1c(=O)c(C(=O)CN2CCCC[C@@H]2C(N)=O)c(N)n(Cc2ccc(Cl)c(F)c2)c1=O [2.18] | ≥ 30 µM | – |
| CCn1c(=O)c(C(=O)CN2CCCC[C@@H]2C(=O)OC)c(N)n(Cc2ccc(F)cc2)c1=O [2.2] | ≥ 30 µM | – |
| CCn1c(=O)c(C(=O)CN2CCCC[C@@H]2C(N)=O)c(N)n(Cc2cccc(F)c2)c1=O [2.10] | ≥ 30 µM | – |
| CC(C)n1c(=O)c(C(=O)CN2CCCC[C@@H]2C(N)=O)c(N)n(Cc2ccc(F)cc2)c1=O [2.13] | ≥ 30 µM | – |
| CCn1c(=O)c(C(=O)CN[C@H](C(=O)OC)C(C)C)c(N)n(Cc2ccccc2)c1=O [1.15] | ≥ 100 µM | – |
| CCn1c(=O)c(C(=O)CN(c2cccc(C(N)=O)c2)C(C)C)c(N)n(Cc2ccc(F)cc2)c1=O [1.219] | 48.5 µM | – |
| CCn1c(=O)c(C(=O)CN2CCCC[C@@H]2C(N)=O)c(N)n(Cc2ccc(C(F)(F)F)nc2)c1=O [2.24] | ≥ 30 µM | – |
| NC(=O)[C@H]1CCCCN1CC(=O)c1c(N)n(Cc2ccc(F)cc2)c(=O)n(CC2CC2)c1=O [1.218] | ≥ 100 µM | – |
| CCn1c(=O)c(C(=O)CN2CCCC[C@@H]2C(N)=O)c(N)n(Cc2ccc(C#N)c(F)c2)c1=O [2.20] | ≥ 30 µM | – |
| CCn1c(=O)c(C(=O)CN(C)C(C)C)c(N)n(Cc2ccccc2)c1=O [1.20] | ≥ 100 µM | – |
| NC(=O)C1CCCCN1CC(=O)c1c(N)n(Cc2ccc(F)cc2)c(=O)n(CCC(=O)O)c1=O (stereo not drawn) [1.228] | ≥ 100 µM | – |
| CCn1c(=O)c(C(=O)CN2CCCC[C@@H]2C(N)=O)c(N)n([C@H](C)c2ccccc2)c1=O [1.125] | ≥ 100 µM | – |
| CCn1c(=O)c(C(=O)CN2CCCC[C@@H]2C(N)=O)c(N)n(-c2cccc(F)c2)c1=O [2.16] | ≥ 30 µM | – |
| CCn1c(=O)c(C(=O)CN2CCOCC2)c(N)n(Cc2ccccc2)c1=O [1.11] | ≥ 100 µM | – |
| CCn1c(=O)c(C(=O)CN2CCCC[C@@H]2C(=O)N2CCCC2)c(N)n(Cc2ccc(F)cc2)c1=O [2.5] | ≥ 30 µM | – |
| CCn1c(=O)c(C(=O)CNC(COC)c2ccccc2)c(N)n(Cc2ccc(F)cc2)c1=O (stereo not drawn) [1.180] | 73.2 µM | – |
| CCn1c(=O)c(C(=O)CN2CCCCC2c2nc3ccccc3n2C)c(N)n(Cc2ccccc2)c1=O (stereo not drawn) [1.105] | ≥ 100 µM | – |
| CCn1c(=O)c(C(=O)CN2CCCCC2C(N)=O)c(N)n(Cc2ccc(F)c(OC)c2)c1=O (stereo not drawn) [1.164] | ≥ 100 µM | – |
| NC(=O)C1CCCCN1CC(=O)c1c(N)n(Cc2ccccc2)c(=O)n(Cc2ccccc2)c1=O (stereo not drawn) [1.50] | 30 µM | – |
| CCn1c(=O)c(C(=O)CN2CCCC[C@@H]2C(N)=O)c(N)n(Cc2ccc(C(F)F)cc2)c1=O [2.12] | ≥ 30 µM | – |
| CCn1c(=O)c(C(=O)CN2CCCC[C@@H]2C(N)=O)c(N)n(Cc2ccc(OC(C)C)cc2)c1=O [2.14] | ≥ 30 µM | – |
| CCn1c(=O)c(C(=O)CN2CCCCC2C(N)=O)c(N)n(Cc2ccc(F)cc2)c1=O (stereo not drawn) [1.103] | ≥ 100 µM | – |
| CCCNC(=O)CN(C)CC(=O)c1c(N)n(Cc2ccccc2)c(=O)n(C)c1=O [1.42] | ≥ 100 µM | – |
| CCn1c(=O)c(C(=O)CN2CCCCC2C(N)=O)c(N)n(Cc2ccccc2)c1=O (stereo not drawn) [1.48] | ≥ 100 µM | – |

| Compound | EC50 (G542X#10-HBE5x5) | EC50 (W134X-CF#14 FRT) |
| --- | --- | --- |
| CCn1c(=O)c(C(=O)CN2CCCC[C@@H]2C(N)=O)c(N)n(Cc2ccc(F)nc2)c1=O [2.21] | ≥ 30 µM | – |
| CCn1c(=O)c(C(=O)CN[C@H](C(N)=O)C(C)C)c(N)n(Cc2ccc(F)cc2)c1=O [1.187] | ≥ 100 µM | – |
| CCn1c(=O)c(C(=O)CN2CCc3cccc(C(=O)OC)c3C2)c(N)n(Cc2ccc(F)cc2)c1=O [1.220] | ≥ 100 µM | – |
| CCn1c(=O)c(C(=O)CN2CCCCC2C(=O)N(C)C)c(N)n(Cc2ccccc2)c1=O (stereo not drawn) [1.67] | ≥ 100 µM | – |
| CCn1c(=O)c(C(=O)CN(CCC(N)=O)C(C)C)c(N)n(Cc2ccc(F)cc2)c1=O [1.204] | – | 12.5 µM |
| CCn1c(=O)c(C(=O)CN2CCCC[C@@H]2C(=O)NCC(C)(C)C)c(N)n(Cc2ccccc2)c1=O [1.157] | – | 19.5 µM |
| CCN(CC(=O)c1c(N)n(Cc2ccccc2)c(=O)n(CC)c1=O)CC(=O)c1c(N)n(Cc2ccccc2)c(=O)n(CC)c1=O [1.37] | – | 12.9 µM |
| CC(C)n1c(=O)c(C(=O)CN2CCCCC2C(N)=O)c(N)n(Cc2ccccc2)c1=O (stereo not drawn) [1.44] | – | 22.7 µM |
| CCn1c(=O)c(C(=O)CN2CCCCC2)c(N)n(Cc2ccc(F)cc2)c1=O [1.193] | – | 47.2 µM |
| CCn1c(=O)c(C(=O)CN2CCCCC2C(N)=O)c(N)n(CC2CCCCC2)c1=O (stereo not drawn) [1.84] | – | 48.2 µM |
| CCn1c(=O)c(C(=O)CN(C)CC(=O)c2c(N)n(Cc3ccccc3)c(=O)n(CC)c2=O)c(N)n(Cc2ccccc2)c1=O [1.38] | – | 11.9 µM |
| CCn1c(=O)c(C(=O)CN2CCCCC2C(N)=O)c(N)n(Cc2ccc(F)cc2C)c1=O (stereo not drawn) [1.161] | – | 13.9 µM |
| CCn1c(=O)c(C(=O)CN2CCCCC2C(N)=O)c(N)n(Cc2ccccc2F)c1=O (stereo not drawn) [1.137] | – | 5.08 µM |
| COc1ccc(Cn2c(N)c(C(=O)CN3CCCCC3C(N)=O)c(=O)n(Cc3ccc(OC)cc3)c2=O)cc1 (stereo not drawn) [1.115] | – | 31.9 µM |
| CCn1c(=O)c(C(=O)CN(CCNC(=O)OC(C)(C)C)C(C)C)c(N)n(Cc2ccccc2)c1=O [1.26] | – | 155 µM |
| CCn1c(=O)c(C(=O)CN2CCCCC2C(N)=O)c(N)n(Cc2ccc(F)c(F)c2)c1=O (stereo not drawn) [1.147] | – | 52.5 µM |
| CCC(C)C1CCCCN1CC(=O)c1c(N)n(Cc2ccc(F)cc2)c(=O)n(CC)c1=O (stereo not drawn) [1.202] | – | 5.51 µM |
| CCn1c(=O)c(C(=O)CN2CCCCC2C(=O)NCc2ccccc2C)c(N)n(Cc2ccccc2)c1=O (stereo not drawn) [1.135] | – | 13.5 µM |
| CCn1c(=O)c(C(=O)CN2CCCC[C@H]2C(N)=O)c(N)n(Cc2ccccc2)c1=O [1.49] | – | 59.4 µM |
| NC(=O)C1CCCCN1CC(=O)c1c(N)n(CC2CCC2)c(=O)n(Cc2ccc(F)cc2)c1=O (stereo not drawn) [1.160] | – | 28.4 µM |
| Cc1ccc(Cn2c(N)c(C(=O)CN3CCCCC3C(N)=O)c(=O)n(Cc3ccc(C)cc3)c2=O)cc1 (stereo not drawn) [1.114] | – | 18.1 µM |
| CCn1c(=O)c(C(=O)CN2CCCC[C@@H]2C(=O)NCC(C)C)c(N)n(Cc2ccccc2)c1=O [1.156] | – | 11.4 µM |
| CCn1c(=O)c(C(=O)CN2CCCC[C@@H]2C(=O)NCC(F)(F)F)c(N)n(Cc2ccccc2)c1=O [1.159] | – | 4.91 µM |
| CN(C)C(=O)C1CCCCN1CC(=O)c1c(N)n(Cc2cccs2)c(=O)n(Cc2cccs2)c1=O (stereo not drawn) [1.102] | – | 6.2 µM |
